Results published in patent US6706663B2, “Herbicidal 3-heterocyclic substituted benzisothiazole and benzisoxazole compounds” (Wyeth, priority 2000, dated 2004).

Assays:
ZEAMX (Corn, Field) = assay: Preemergence herbicidal evaluation; assay type: in vivo, Zea mays, L.; conditions: rated 4-5 weeks after treatment
[1] = test system: MOOVA (Monochoria vaginalis); assay: Flooded paddy, preemergence weed control; assay type: in vivo, Presl.; conditions: rated 3-4 weeks after treatment, 0-9 rating scale
Summary of the method: (§1)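 Flooded silt loam pots, seeds in upper 0.5 cm, water held 1.5–3 cm deep; greenhouse; visual 0-9 score vs control.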

CYPIR (Cyperus iria) = assay: Flooded paddy, preemergence weed control; assay type: in vivo; conditions: rated 3-4 weeks after treatment, 0-9 rating scale
Summary of the method: as §1

[2] = test system: ECHORC (Echinochloa oryzoides); assay: Flooded paddy, preemergence weed control; assay type: in vivo, Echinochloa oryzoides (Ard.) Fritsch.; conditions: rated 3-4 weeks after treatment, 0-9 rating scale
Summary of the method: as §1

SETVI (Setaria viridis) [3] = assay: Preemergence herbicidal evaluation; assay type: in vivo, (L.) Beau; conditions: rated 4-5 weeks after treatment
Summary of the method: (§2)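 Applied before emergence as an aqueous acetone spray over seeded soil. Read-out: 0–9 visual rating covering plant stand, vigor, size, chlorosis, malformation and overall appearance compared with control, taken 4–5 weeks after spraying.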

[4] = test system: ECHCG (Echinochloa crus-galli); assay: Preemergence herbicidal evaluation; assay type: in vivo, (L.) Beau; conditions: rated 4-5 weeks after treatment
Summary of the method: as §2

SETVI (Setaria viridis) [5] = assay: Postemergence herbicidal evaluation; assay type: in vivo, (L.) Beau; conditions: postemergence
Summary of the method: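 Seedlings about two weeks old were sprayed with compound in 50/50 acetone/water plus 0.5% TWEEN 20, at the equivalent of about 0.0040 to 1.000 kg/ha. Plants were kept in a greenhouse and visually rated 0-9 against a control four to five weeks after treatment. Repeat tests were averaged.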

[6] = test system: IPOHE (Ipomoea hederacea); assay: Postemergence herbicidal evaluation; assay type: in vivo, (L.) Jacq.; conditions: postemergence
Summary of the method: (§3)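 Seedlings grown about two weeks in flats, sprayed, then kept under standard greenhouse care. Rated visually 4–5 weeks after treatment on a 0–9 scale (stand, vigour, malformation, size, chlorosis, overall appearance) relative to untreated control; repeat tests averaged.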

[7] = test system: TRZAWR (Wheat, Winter, cv Riband); assay: Postemergence herbicidal evaluation; assay type: in vivo, Triticum aestivum; conditions: postemergence
Summary of the method: as §3

[8] = test system: GLXMAW (Soybean, Williams); assay: Preemergence herbicidal evaluation; assay type: in vivo, Glycine max, (L.) Merr. cv Williams; conditions: rated 4-5 weeks after treatment

Structure (SMILES) | Preemergence herbicidal rating ZEAMX (ZEAMX (Corn, Field); Rate 0.0620 kg/ha) | Preemergence herbicidal rating ZEAMX (ZEAMX (Corn, Field); Rate 0.1250 kg/ha) | Preemergence herbicidal rating ZEAMX (ZEAMX (Corn, Field); Rate 0.2500 kg/ha) | herbicidal rating, MOOVA ([1]; rate 0.0320 kg/ha) | herbicidal rating, MOOVA ([1]; rate 0.1250 kg/ha) | herbicidal rating, CYPIR (CYPIR (Cyperus iria); rate 0.0320 kg/ha) | herbicidal rating, CYPIR (CYPIR (Cyperus iria); rate 0.1250 kg/ha) | herbicidal rating, ECHORC ([2]; rate 0.0320 kg/ha) | herbicidal rating, ECHORC ([2]; rate 0.1250 kg/ha) | Preemergence herbicidal rating SETVI (SETVI (Setaria viridis) [3]; Rate 0.0620 kg/ha) | Preemergence herbicidal rating SETVI (SETVI (Setaria viridis) [3]; Rate 0.1250 kg/ha) | Preemergence herbicidal rating SETVI (SETVI (Setaria viridis) [3]; Rate 0.2500 kg/ha) | Preemergence herbicidal rating ECHCG ([4]; Rate 0.0620 kg/ha) | Preemergence herbicidal rating ECHCG ([4]; Rate 0.1250 kg/ha) | Preemergence herbicidal rating ECHCG ([4]; Rate 0.2500 kg/ha) | SETVI herbicidal rating (SETVI (Setaria viridis) [5]; rate 0.0320 kg/ha) | IPOHE herbicidal rating ([6]; rate 0.0320 kg/ha) | IPOHE herbicidal rating ([6]; rate 0.0620 kg/ha) | TRZAWR herbicidal rating ([7]; rate 0.0320 kg/ha) | TRZAWR herbicidal rating ([7]; rate 0.0620 kg/ha) | further results
Cn1c(C(F)(F)F)cc(=O)n(-c2ccc3snc(C4(C)OCCO4)c3c2)c1=O [Compound 54, 1-methyl-3-[3-(2-methyl-1,3-dioxolan-2-yl)-1,2-benzisothiazol-5-yl]-6-(trifluoromethyl)uracil] | 8.0 | 8.5 | 9.0 | 9.0 | 9.0 | 7.5 | 9.0 | 8.0 | 9.0 | 9.0 | 9.0 | 9.0 | 9.0 | 9.0 | 9.0 | 3.0 | 9.0 | 9.0 | 5.0 | 6.5 | herbicidal rating, CYPIR (CYPIR (Cyperus iria); rate 0.0080 kg/ha): 0.0; herbicidal rating, ECHORC ([2]; rate 0.0080 kg/ha): 8.0; SETVI herbicidal rating (SETVI (Setaria viridis) [5]; rate 0.0620 kg/ha): 9.0; SETVI herbicidal rating (SETVI (Setaria viridis) [5]; rate 0.1250 kg/ha): 8.0; IPOHE herbicidal rating ([6]; rate 0.1250 kg/ha): 9.0; TRZAWR herbicidal rating ([7]; rate 0.1250 kg/ha): 7.5; Preemergence herbicidal rating GLXMAW ([8]; Rate 0.0620 kg/ha): 9.0; Preemergence herbicidal rating GLXMAW ([8]; Rate 0.1250 kg/ha): 9.0; Preemergence herbicidal rating GLXMAW ([8]; Rate 0.2500 kg/ha): 9.0
CC1CC(C)(C)OC(c2nsc3ccc(-n4c(=O)cc(C(F)(F)F)n(C)c4=O)cc23)O1 (centres unmarked) [Compound 55, 1-methyl-6-(trifluoromethyl)-3-[3-(4,4,6-trimethyl-m-dioxan-2-yl)-1,2-benzisothiazol-5-yl]uracil] | 8.0 | 9.0 | 8.0 | 9.0 | 9.0 | 6.0 | 9.0 | 7.5 | 9.0 | 9.0 | 9.0 | 9.0 | 9.0 | 9.0 | 9.0 | 1.0 | 9.0 | 9.0 | 3.0 | 5.0 | herbicidal rating, CYPIR (CYPIR (Cyperus iria); rate 0.0080 kg/ha): 0.0; herbicidal rating, ECHORC ([2]; rate 0.0080 kg/ha): 5.0; SETVI herbicidal rating (SETVI (Setaria viridis) [5]; rate 0.0620 kg/ha): 1.0; Preemergence herbicidal rating GLXMAW ([8]; Rate 0.0620 kg/ha): 6.5; Preemergence herbicidal rating GLXMAW ([8]; Rate 0.1250 kg/ha): 8.0; Preemergence herbicidal rating GLXMAW ([8]; Rate 0.2500 kg/ha): 9.0
CC1COC(c2nsc3ccc(-n4c(=O)cc(C(F)(F)F)n(C)c4=O)cc23)O1 (centres unmarked) [Compound 57, 1-methyl-3-[3-(4-methyl-1,3-dioxolan-2-yl)-1,2-benzisothiazol-5-yl]-6-(trifluoromethyl)uracil] | 7.5 | 8.0 | 9.0 | 9.0 | 9.0 | 7.5 | 9.0 | 8.0 | 9.0 | 9.0 | 9.0 | 9.0 | 9.0 | 9.0 | 9.0 | 4.0 | 9.0 | 9.0 | 4.5 | 5.0 | herbicidal rating, CYPIR (CYPIR (Cyperus iria); rate 0.0080 kg/ha): 0.0; herbicidal rating, ECHORC ([2]; rate 0.0080 kg/ha): 5.0; SETVI herbicidal rating (SETVI (Setaria viridis) [5]; rate 0.0620 kg/ha): 9.0; Preemergence herbicidal rating GLXMAW ([8]; Rate 0.0620 kg/ha): 9.0; Preemergence herbicidal rating GLXMAW ([8]; Rate 0.1250 kg/ha): 9.0; Preemergence herbicidal rating GLXMAW ([8]; Rate 0.2500 kg/ha): 9.0
C=C1COC(c2nsc3ccc(-n4c(=O)cc(C(F)(F)F)n(C)c4=O)cc23)OC1 [Compound 58, 2,4(1H,3H)-pyrimidinedione, 1-methyl-3-[3-(5-methylene-m-dioxan-2-yl)-1,2-benzisothiazol-5-yl]-6-(trifluoromethyl)-] | 8.0 | 9.0 | 9.0 | 9.0 | 9.0 | 6.0 | 9.0 | 6.0 | 9.0 | 8.0 | 9.0 | 9.0 | 9.0 | 9.0 | 9.0 | 1.0 | 9.0 | 9.0 | 4.0 | 4.5 | SETVI herbicidal rating (SETVI (Setaria viridis) [5]; rate 0.0620 kg/ha): 6.0; Preemergence herbicidal rating GLXMAW ([8]; Rate 0.0620 kg/ha): 9.0; Preemergence herbicidal rating GLXMAW ([8]; Rate 0.1250 kg/ha): 8.0; Preemergence herbicidal rating GLXMAW ([8]; Rate 0.2500 kg/ha): 9.0
Cc1cnn(-c2nsc3ccc(-n4c(=O)cc(C(F)(F)F)n(C)c4=O)cc23)c1 [Compound 59, 1-methyl-3-[3-(4-methylpyrazol-1-yl)-1,2-benzisothiazol-5-yl]-6-(trifluoromethyl)uracil] | 1.0 | 5.0 | 5.0 | 3.0 | 9.0 | 3.0 | 9.0 | 0.0 | 3.0 | 6.0 | 6.0 | 9.0 | 2.0 | 3.0 | 7.0 | 0.0 | 8.0 | 8.0 | 3.0 | 3.5 | herbicidal rating, MOOVA ([1]; rate 0.0080 kg/ha): 0.0; herbicidal rating, CYPIR (CYPIR (Cyperus iria); rate 0.0080 kg/ha): 0.0; herbicidal rating, ECHORC ([2]; rate 0.0080 kg/ha): 0.0; SETVI herbicidal rating (SETVI (Setaria viridis) [5]; rate 0.1250 kg/ha): 3.0; IPOHE herbicidal rating ([6]; rate 0.1250 kg/ha): 9.0; TRZAWR herbicidal rating ([7]; rate 0.1250 kg/ha): 4.0; Preemergence herbicidal rating GLXMAW ([8]; Rate 0.0620 kg/ha): 0.0; Preemergence herbicidal rating GLXMAW ([8]; Rate 0.1250 kg/ha): 2.0; Preemergence herbicidal rating GLXMAW ([8]; Rate 0.2500 kg/ha): 3.0
Cn1c(C(F)(F)F)cc(=O)n(-c2ccc3snc(-c4ccco4)c3c2)c1=O [Compound 60, 3-[3-(2-furyl)-1,2-benzisothiazol-5-yl]-1-methyl-6-(trifluoromethyl)uracil] | 3.0 | 5.0 | 6.0 | 9.0 | 9.0 | 6.0 | 7.0 | 4.0 | 7.0 | 3.0 | 7.0 | 9.0 | 1.0 | 6.0 | 7.0 | 3.0 | 9.0 | 9.0 | 4.0 | 4.5 | herbicidal rating, MOOVA ([1]; rate 0.0080 kg/ha): 0.0; herbicidal rating, CYPIR (CYPIR (Cyperus iria); rate 0.0080 kg/ha): 0.0; herbicidal rating, ECHORC ([2]; rate 0.0080 kg/ha): 1.5; SETVI herbicidal rating (SETVI (Setaria viridis) [5]; rate 0.0620 kg/ha): 2.0; Preemergence herbicidal rating GLXMAW ([8]; Rate 0.0620 kg/ha): 1.0; Preemergence herbicidal rating GLXMAW ([8]; Rate 0.1250 kg/ha): 3.0; Preemergence herbicidal rating GLXMAW ([8]; Rate 0.2500 kg/ha): 4.0
